Reference: ChEMBL document CHEMBL4507272 (2021)

Key:
Details in all cases: Compound concentration 10.0 uM
[1] = biological target: 5-hydroxytryptamine receptor 1A (Homo sapiens) (UniProt P08908)
[2] = biological target: Alpha-2C adrenergic receptor (Homo sapiens) (UniProt P18825)
[3] = biological target: Alpha-2B adrenergic receptor (Homo sapiens) (UniProt P18089)
[4] = biological target: Muscarinic acetylcholine receptor M2 (Homo sapiens) (UniProt P08172)
[5] = biological target: Alpha-1D adrenergic receptor (Homo sapiens) (UniProt P25100)
Sequence of Alpha-1D adrenergic receptor (Homo sapiens) (P25100 whole entry): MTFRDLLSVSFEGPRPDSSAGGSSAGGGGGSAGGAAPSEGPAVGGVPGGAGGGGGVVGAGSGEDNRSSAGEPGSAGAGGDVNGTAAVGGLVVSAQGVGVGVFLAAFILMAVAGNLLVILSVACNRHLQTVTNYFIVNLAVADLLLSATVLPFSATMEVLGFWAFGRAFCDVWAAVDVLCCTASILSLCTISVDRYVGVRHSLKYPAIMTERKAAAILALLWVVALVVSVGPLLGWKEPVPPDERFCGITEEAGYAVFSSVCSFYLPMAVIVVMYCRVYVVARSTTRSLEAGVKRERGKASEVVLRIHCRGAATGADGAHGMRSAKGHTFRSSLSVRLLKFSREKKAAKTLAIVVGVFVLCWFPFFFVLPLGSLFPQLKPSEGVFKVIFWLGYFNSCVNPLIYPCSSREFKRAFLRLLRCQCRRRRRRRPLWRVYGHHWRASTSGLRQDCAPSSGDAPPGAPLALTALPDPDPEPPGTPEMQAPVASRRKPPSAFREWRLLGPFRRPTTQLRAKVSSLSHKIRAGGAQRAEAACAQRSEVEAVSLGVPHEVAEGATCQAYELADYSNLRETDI

[6] = biological target: 5-hydroxytryptamine receptor 2C (Homo sapiens) (UniProt P28335)
[7] = biological target: Beta-1 adrenergic receptor (Homo sapiens, UniProt P08588)
[8] = biological target: Kappa-type opioid receptor (Homo sapiens) (UniProt P41145)
[9] = biological target: T1, GABA-A receptor; anion channel (Rattus norvegicus) (UniProt O09028+P15431+P18506+P18508+P19969+P20236+P23574+P23576+P28471+P28473+P30191+P62813+P63079+P63138+Q91ZM7+Q9ES14)
[10] = biological target: Histamine H1 receptor (Homo sapiens) (UniProt P35367)
Sequence of Histamine H1 receptor (Homo sapiens) (P35367 whole entry): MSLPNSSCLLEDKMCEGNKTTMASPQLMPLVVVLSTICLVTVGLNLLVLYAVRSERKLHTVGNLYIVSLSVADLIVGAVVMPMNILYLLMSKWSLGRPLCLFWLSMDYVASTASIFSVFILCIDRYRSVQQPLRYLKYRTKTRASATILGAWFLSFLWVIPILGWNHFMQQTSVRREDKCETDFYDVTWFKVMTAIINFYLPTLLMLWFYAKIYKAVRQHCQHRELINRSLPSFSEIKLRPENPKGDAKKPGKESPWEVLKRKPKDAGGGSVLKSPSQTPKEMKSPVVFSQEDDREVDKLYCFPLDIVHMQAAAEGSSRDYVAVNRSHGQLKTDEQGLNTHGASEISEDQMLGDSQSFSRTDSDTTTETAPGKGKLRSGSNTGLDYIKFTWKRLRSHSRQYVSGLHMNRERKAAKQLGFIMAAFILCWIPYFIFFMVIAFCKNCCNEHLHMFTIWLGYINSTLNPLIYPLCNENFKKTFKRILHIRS

[11] = biological target: Delta-type opioid receptor (Homo sapiens) (UniProt P41143)
[12] = biological target: D(3) dopamine receptor (Homo sapiens) (UniProt P35462)
[13] = biological target: Sodium-dependent noradrenaline transporter (Homo sapiens) (UniProt P23975)
Sequence of Sodium-dependent noradrenaline transporter (Homo sapiens) (P23975 whole entry): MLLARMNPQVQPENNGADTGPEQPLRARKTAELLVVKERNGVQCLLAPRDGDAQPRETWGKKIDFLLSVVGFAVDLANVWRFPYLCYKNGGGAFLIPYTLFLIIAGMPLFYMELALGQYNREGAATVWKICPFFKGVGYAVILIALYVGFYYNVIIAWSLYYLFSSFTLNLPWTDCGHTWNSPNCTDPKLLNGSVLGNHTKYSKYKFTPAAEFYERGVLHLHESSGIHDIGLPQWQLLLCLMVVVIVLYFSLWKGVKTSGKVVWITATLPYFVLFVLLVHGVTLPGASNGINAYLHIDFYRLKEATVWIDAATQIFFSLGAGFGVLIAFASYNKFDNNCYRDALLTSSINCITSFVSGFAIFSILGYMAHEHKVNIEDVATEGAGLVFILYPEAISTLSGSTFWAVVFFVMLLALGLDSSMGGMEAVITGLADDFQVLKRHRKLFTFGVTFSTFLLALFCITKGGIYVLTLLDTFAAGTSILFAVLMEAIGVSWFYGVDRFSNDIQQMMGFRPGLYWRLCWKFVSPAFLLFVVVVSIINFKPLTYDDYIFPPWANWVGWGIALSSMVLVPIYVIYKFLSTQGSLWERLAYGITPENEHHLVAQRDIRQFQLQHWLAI

[14] = biological target: Histamine H4 receptor (Homo sapiens) (UniProt Q9H3N8)
[15] = biological target: Sodium-dependent serotonin transporter (Homo sapiens) (UniProt P31645)
Sequence of Sodium-dependent serotonin transporter (Homo sapiens) (P31645 whole entry, looked up): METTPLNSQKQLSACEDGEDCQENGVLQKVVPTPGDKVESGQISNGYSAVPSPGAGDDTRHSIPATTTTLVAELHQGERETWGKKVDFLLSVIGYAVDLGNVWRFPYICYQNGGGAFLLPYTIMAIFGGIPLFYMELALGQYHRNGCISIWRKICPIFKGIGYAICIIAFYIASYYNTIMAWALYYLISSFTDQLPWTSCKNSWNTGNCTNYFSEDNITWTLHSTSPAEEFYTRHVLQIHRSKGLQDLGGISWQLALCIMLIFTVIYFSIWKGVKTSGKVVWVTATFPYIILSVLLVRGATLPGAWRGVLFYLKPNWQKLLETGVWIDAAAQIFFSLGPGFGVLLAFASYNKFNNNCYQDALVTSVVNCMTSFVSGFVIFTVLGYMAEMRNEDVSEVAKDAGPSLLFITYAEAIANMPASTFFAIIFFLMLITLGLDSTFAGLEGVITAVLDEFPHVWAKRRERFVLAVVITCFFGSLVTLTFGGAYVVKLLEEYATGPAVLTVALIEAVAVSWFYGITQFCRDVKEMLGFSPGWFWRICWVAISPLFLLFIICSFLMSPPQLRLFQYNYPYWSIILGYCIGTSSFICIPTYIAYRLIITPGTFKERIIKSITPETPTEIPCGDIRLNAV

[16] = biological target: 5-hydroxytryptamine receptor 7 (Homo sapiens) (UniProt P34969)
[17] = biological target: Alpha-2A adrenergic receptor (Homo sapiens) (UniProt P08913)
[18] = biological target: 5-hydroxytryptamine receptor 1B (Homo sapiens) (UniProt P28222)
[19] = biological target: 5-hydroxytryptamine receptor 2B (Homo sapiens) (UniProt P41595)
[20] = biological target: Histamine H2 receptor (Homo sapiens) (UniProt P25021)
Sequence of Histamine H2 receptor (Homo sapiens) (P25021 whole entry): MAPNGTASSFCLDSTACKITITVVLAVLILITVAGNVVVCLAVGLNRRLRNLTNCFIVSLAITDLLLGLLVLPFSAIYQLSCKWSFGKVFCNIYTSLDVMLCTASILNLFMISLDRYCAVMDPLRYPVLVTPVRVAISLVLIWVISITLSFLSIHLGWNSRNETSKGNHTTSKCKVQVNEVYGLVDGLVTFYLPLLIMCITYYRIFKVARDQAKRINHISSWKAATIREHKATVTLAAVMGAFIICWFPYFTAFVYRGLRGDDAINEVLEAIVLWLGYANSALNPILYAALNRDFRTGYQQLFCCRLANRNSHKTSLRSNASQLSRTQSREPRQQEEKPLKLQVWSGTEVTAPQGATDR

[21] = biological target: 5-hydroxytryptamine receptor 3A (Homo sapiens) (UniProt P46098)
[22] = biological target: T1, GABA-A receptor; anion channel (Rattus norvegicus); remark: listed apart in the source
[23] = biological target: Sigma intracellular receptor 2 (Homo sapiens) (UniProt Q5BJF2)
[24] = biological target: Alpha-1B adrenergic receptor (Homo sapiens) (UniProt P35368)
Sequence of Alpha-1B adrenergic receptor (Homo sapiens) (P35368 whole entry): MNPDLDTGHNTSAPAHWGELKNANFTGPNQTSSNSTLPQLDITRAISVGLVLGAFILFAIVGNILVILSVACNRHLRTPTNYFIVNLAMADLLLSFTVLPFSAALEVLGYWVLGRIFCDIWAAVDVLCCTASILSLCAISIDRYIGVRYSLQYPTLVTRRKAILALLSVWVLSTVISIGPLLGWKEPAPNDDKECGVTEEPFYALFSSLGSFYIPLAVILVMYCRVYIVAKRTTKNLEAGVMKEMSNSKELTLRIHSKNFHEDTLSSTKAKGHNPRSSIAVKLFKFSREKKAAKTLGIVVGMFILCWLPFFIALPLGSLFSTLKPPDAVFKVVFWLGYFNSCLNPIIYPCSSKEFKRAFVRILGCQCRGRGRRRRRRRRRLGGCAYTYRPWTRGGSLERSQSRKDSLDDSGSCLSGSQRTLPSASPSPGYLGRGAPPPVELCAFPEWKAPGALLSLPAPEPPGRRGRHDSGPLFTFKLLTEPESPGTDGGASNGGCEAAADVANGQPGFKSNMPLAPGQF

[25] = biological target: 5-hydroxytryptamine receptor 2A (Homo sapiens) (UniProt P28223)
[26] = biological target: Muscarinic acetylcholine receptor M3 (Homo sapiens) (UniProt P20309)
[27] = biological target: Beta-2 adrenergic receptor (Homo sapiens) (UniProt P07550)
Sequence of Beta-2 adrenergic receptor (Homo sapiens) (P07550 whole entry, looked up): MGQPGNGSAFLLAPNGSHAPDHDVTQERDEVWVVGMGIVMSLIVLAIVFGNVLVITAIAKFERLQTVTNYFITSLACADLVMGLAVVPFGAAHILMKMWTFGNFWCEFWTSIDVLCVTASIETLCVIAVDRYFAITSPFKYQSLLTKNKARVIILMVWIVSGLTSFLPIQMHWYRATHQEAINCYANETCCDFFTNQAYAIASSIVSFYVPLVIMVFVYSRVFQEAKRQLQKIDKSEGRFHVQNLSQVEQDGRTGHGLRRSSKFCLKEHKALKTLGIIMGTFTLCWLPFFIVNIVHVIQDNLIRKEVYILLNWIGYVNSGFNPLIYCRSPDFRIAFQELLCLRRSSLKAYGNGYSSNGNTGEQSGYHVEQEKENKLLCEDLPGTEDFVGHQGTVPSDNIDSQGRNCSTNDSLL

[28] = biological target: Muscarinic acetylcholine receptor M5 (Homo sapiens) (UniProt P08912)
[29] = biological target: Sodium-dependent dopamine transporter (Homo sapiens) (UniProt Q01959)
[30] = biological target: Beta-3 adrenergic receptor (Homo sapiens) (UniProt P13945)
[31] = biological target: 5-hydroxytryptamine receptor 5A (Homo sapiens) (UniProt P47898)
[32] = biological target: Alpha-1A adrenergic receptor (Homo sapiens) (UniProt P35348)
[33] = biological target: D(4) dopamine receptor (Homo sapiens) (UniProt P21917)
[34] = biological target: D(1B) dopamine receptor (Homo sapiens) (UniProt P21918)
[35] = biological target: D(2) dopamine receptor (Homo sapiens) (UniProt P14416)
[36] = biological target: Muscarinic acetylcholine receptor M4 (Homo sapiens) (UniProt P08173)
Sequence of Muscarinic acetylcholine receptor M4 (Homo sapiens) (P08173 whole entry): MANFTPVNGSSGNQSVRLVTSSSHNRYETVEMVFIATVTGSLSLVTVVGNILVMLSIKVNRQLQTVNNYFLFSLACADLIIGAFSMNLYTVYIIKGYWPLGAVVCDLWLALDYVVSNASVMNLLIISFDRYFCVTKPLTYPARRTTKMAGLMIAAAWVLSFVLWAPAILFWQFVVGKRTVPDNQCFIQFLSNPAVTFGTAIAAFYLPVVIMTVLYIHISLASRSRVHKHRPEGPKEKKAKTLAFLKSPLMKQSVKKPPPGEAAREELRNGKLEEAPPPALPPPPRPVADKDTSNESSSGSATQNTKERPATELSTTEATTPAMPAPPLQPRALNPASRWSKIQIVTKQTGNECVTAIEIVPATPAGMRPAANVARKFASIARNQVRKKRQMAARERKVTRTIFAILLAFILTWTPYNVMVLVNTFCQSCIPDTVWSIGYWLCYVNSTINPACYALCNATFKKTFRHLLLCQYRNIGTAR

[37] = biological target: Mu-type opioid receptor (Homo sapiens) (UniProt P35372)
[38] = biological target: 5-hydroxytryptamine receptor 6 (Homo sapiens) (UniProt P50406)

Sequence of Alpha-2B adrenergic receptor (Homo sapiens) (P18089 whole entry): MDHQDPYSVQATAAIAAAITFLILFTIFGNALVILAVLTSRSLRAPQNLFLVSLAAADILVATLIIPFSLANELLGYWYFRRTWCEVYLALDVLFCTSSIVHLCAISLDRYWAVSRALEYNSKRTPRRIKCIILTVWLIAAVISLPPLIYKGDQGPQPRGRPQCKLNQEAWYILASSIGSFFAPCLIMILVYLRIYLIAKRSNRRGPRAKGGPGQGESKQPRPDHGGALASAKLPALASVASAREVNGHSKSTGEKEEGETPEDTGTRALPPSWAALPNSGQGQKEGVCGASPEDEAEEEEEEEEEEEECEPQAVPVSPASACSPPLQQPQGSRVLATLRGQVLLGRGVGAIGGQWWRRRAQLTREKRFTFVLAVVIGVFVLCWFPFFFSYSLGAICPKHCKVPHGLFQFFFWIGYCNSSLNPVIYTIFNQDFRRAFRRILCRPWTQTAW
Sequence of Alpha-2C adrenergic receptor (Homo sapiens) (P18825 whole entry): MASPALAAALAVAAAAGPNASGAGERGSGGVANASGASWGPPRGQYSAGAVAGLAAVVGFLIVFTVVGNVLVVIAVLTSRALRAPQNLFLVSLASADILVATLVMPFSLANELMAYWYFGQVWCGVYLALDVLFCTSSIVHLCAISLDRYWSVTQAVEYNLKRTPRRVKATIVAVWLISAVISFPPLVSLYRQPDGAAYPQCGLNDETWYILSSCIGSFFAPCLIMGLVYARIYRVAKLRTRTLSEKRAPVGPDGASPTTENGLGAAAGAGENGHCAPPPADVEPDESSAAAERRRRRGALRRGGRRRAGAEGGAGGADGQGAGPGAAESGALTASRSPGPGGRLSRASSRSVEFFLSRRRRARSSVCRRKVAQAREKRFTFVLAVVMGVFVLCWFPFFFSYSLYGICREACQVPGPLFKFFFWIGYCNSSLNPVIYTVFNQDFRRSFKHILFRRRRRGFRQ

- inhibition [1]: 3.63%
- inhibition [2]: 11%
- inhibition [3]: 11.8%
- inhibition [4]: -9.21%
- inhibition [5]: 7.7%
- inhibition [6]: 29%
- inhibition [7]: 8.09%
- inhibition [8]: -8.67%
- inhibition [9]: -5.84%
- inhibition [10]: 5.28%
- inhibition [11]: 4.95%
- inhibition [12]: -6.43%
- inhibition [13]: -8.06%
- inhibition [14]: -0.78%
- inhibition [15]: 2.85%
- inhibition [16]: 13.9%
- inhibition [17]: -8.89%
- inhibition [18]: 6.75%
- inhibition [19]: 15.8%
- inhibition [20]: 3.4%
- inhibition [21]: 23.7%
- inhibition [22]: 14.7%
- inhibition [23]: 20.9%
- inhibition [24]: -8.1%
- inhibition [25]: -6.25%
- inhibition [26]: 27.3%
- inhibition [27]: 21.6%
- inhibition [28]: 2.19%
- inhibition [29]: 1.88%
- inhibition [30]: 17.2%
- inhibition [31]: 8.86%
- inhibition [32]: -5.26%
- inhibition [33]: 5.84%
- inhibition [34]: 5.12%
- inhibition [35]: -1.53%
- inhibition [36]: 2.88%
- inhibition [37]: 2.02%
- inhibition [38]: 14.9%
SMILES: CC(=O)C1=C(C)N(c2cccc(C(F)(F)F)c2)C(=O)N[C@H]1c1ccc(C#N)nc1
